Measured values published in ChEMBL document CHEMBL1201862, “PubChem BioAssay data set” (2004).
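Compound exposure: 48 hours, 5 concentrations, 96-well plates. GI50: concentration for 50% inhibition of growth.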 Active and inactive are the calls of the source. No stated cut-off is given here; in the data, active = GI50 up to about 1.1 µM and inactive = higher.

Experiments:
Experiment in all cases: inhibition of tumour cell growth, NCI panel, 48 h
OVCAR-4 = system: OVCAR-4
786-0 = system: 786-0
A549 = system: A549
ACHN = system: ACHN
SR = system: SR
MDA-N = system: MDA-N
M14 = system: M14
MCF7 = system: MCF7
SF-539 = system: SF-539
SW-620 = system: SW-620
Hs-578T = system: Hs-578T
UACC-257 = system: UACC-257
NCI-H522 = system: NCI-H522
SK-MEL-28 = system: SK-MEL-28
HOP-92 = system: HOP-92
PC-3 = system: PC-3
SK-MEL-5 = system: SK-MEL-5
NCI/ADR-RES = system: NCI/ADR-RES
COLO 205 = system: COLO 205
CAKI-1 = system: CAKI-1

SMILES	GI50 (OVCAR-4)	GI50 (786-0)	GI50 (A549)	GI50 (ACHN)	GI50 (SR)	GI50 (MDA-N)	GI50 (M14)	GI50 (MCF7)	GI50 (SF-539)	GI50 (SW-620)	GI50 (Hs-578T)	GI50 (UACC-257)	GI50 (NCI-H522)	GI50 (SK-MEL-28)	GI50 (HOP-92)	GI50 (PC-3)	GI50 (SK-MEL-5)	GI50 (NCI/ADR-RES)	GI50 (COLO 205)	GI50 (CAKI-1)
O=C1CC2C(=O)c3ccccc3CC2c2ccccc21 (stereo not drawn)	29.5 µM (inactive)	92.3 µM (inactive)	36.3 µM (inactive)	30.7 µM (inactive)	13.8 µM (inactive)	36.3 µM (inactive)	69.5 µM (inactive)	37.2 µM (inactive)	32.7 µM (inactive)	49 µM (inactive)	> 100 µM (inactive)	24.8 µM (inactive)	57.4 µM (inactive)	70.6 µM (inactive)	16.4 µM (inactive)	43 µM (inactive)	–	–	–	–
CC(C)=C1C(=O)c2c(Cl)sc(Cl)c2C1=O	14.5 µM (inactive)	22.9 µM (inactive)	26.1 µM (inactive)	21 µM (inactive)	27.2 µM (inactive)	22.6 µM (inactive)	19 µM (inactive)	41.2 µM (inactive)	22.3 µM (inactive)	28.7 µM (inactive)	32.8 µM (inactive)	21.3 µM (inactive)	16.4 µM (inactive)	21.7 µM (inactive)	22.6 µM (inactive)	–	93.3 µM (inactive)	24 µM (inactive)	20.9 µM (inactive)	18.3 µM (inactive)
On1c(-c2ccccc2)nc2ccccc2c1=S	2.22 µM (inactive)	3.95 µM (inactive)	2.84 µM (inactive)	5.21 µM (inactive)	–	18.9 µM (inactive)	2.91 µM (inactive)	6.9 µM (inactive)	4.32 µM (inactive)	6.82 µM (inactive)	16.5 µM (inactive)	54.3 µM (inactive)	–	7.41 µM (inactive)	> 100 µM (inactive)	3.61 µM (inactive)	3.58 µM (inactive)	4.2 µM (inactive)	3.12 µM (inactive)	5.48 µM (inactive)
CN(C)CCCNC(=O)c1cc(NC(=O)c2cc(NC(=O)CCCn3c4ccccc4c4ccccc43)cn2C)cn1C	15.5 µM (inactive)	13.5 µM (inactive)	17.5 µM (inactive)	27.2 µM (inactive)	–	–	4.41 µM (inactive)	5.89 µM (inactive)	20.4 µM (inactive)	7.94 µM (inactive)	15.5 µM (inactive)	15.9 µM (inactive)	14.2 µM (inactive)	21.6 µM (inactive)	14.7 µM (inactive)	19.2 µM (inactive)	5.81 µM (inactive)	19.6 µM (inactive)	2.15 µM (inactive)	19.1 µM (inactive)
CCN(CC)c1ccc2c(c1)OC(=O)C(c1nnc(-c3ccc([N+](=O)[O-])cc3)o1)C2 (stereo not drawn)	> 100 µM (inactive)	> 100 µM (inactive)	> 100 µM (inactive)	> 100 µM (inactive)	–	> 100 µM (inactive)	> 100 µM (inactive)	> 100 µM (inactive)	–	> 100 µM (inactive)	> 100 µM (inactive)	> 100 µM (inactive)	> 100 µM (inactive)	> 100 µM (inactive)	> 100 µM (inactive)	> 100 µM (inactive)	> 100 µM (inactive)	> 100 µM (inactive)	> 100 µM (inactive)	> 100 µM (inactive)
Cc1ccc(S(=O)(=O)N2CCCSCCN(S(=O)(=O)c3ccc(C)cc3)CCCSCC2)cc1	> 100 µM (inactive)	> 100 µM (inactive)	> 100 µM (inactive)	> 100 µM (inactive)	–	> 100 µM (inactive)	> 100 µM (inactive)	> 100 µM (inactive)	> 100 µM (inactive)	> 100 µM (inactive)	> 100 µM (inactive)	> 100 µM (inactive)	–	> 100 µM (inactive)	> 100 µM (inactive)	–	> 100 µM (inactive)	> 100 µM (inactive)	> 100 µM (inactive)	–
C=C1CCC2[C@](C)(CCC[C@]2(C)C(=O)O)[C@@H]1CCc1ccoc1 (stereo partly drawn)	48.6 µM (inactive)	48.6 µM (inactive)	34.5 µM (inactive)	41.7 µM (inactive)	27 µM (inactive)	61.8 µM (inactive)	41.1 µM (inactive)	–	37 µM (inactive)	53.7 µM (inactive)	33.2 µM (inactive)	29 µM (inactive)	68.5 µM (inactive)	61.1 µM (inactive)	–	46 µM (inactive)	36.6 µM (inactive)	38.5 µM (inactive)	17.4 µM (inactive)	32.8 µM (inactive)
CN(CO)c1nc(N(C)CO)nc(N(C)CO)n1 [TRIMELAMOL]	–	24.2 µM (inactive)	12.8 µM (inactive)	27.5 µM (inactive)	39.6 µM (inactive)	20.6 µM (inactive)	21.8 µM (inactive)	16.1 µM (inactive)	–	3.51 µM (inactive)	27.8 µM (inactive)	–	20.9 µM (inactive)	13.6 µM (inactive)	–	21.8 µM (inactive)	6.95 µM (inactive)	–	8.53 µM (inactive)	23.8 µM (inactive)
Cc1ccsc1/C=N/Nc1ccc2ccccc2n1	29.7 µM (inactive)	30.8 µM (inactive)	7.43 µM (inactive)	15.1 µM (inactive)	–	43.4 µM (inactive)	29.1 µM (inactive)	11.4 µM (inactive)	–	85.1 µM (inactive)	37.7 µM (inactive)	6.12 µM (inactive)	–	80.4 µM (inactive)	17.9 µM (inactive)	19.6 µM (inactive)	3.4 µM (inactive)	30.5 µM (inactive)	27.7 µM (inactive)	17.5 µM (inactive)
CS(=O)(=O)c1ccc(/C=N/NC(N)=S)cc1	> 100 µM (inactive)	> 100 µM (inactive)	> 100 µM (inactive)	> 100 µM (inactive)	–	> 100 µM (inactive)	> 100 µM (inactive)	> 100 µM (inactive)	–	> 100 µM (inactive)	> 100 µM (inactive)	> 100 µM (inactive)	> 100 µM (inactive)	> 100 µM (inactive)	> 100 µM (inactive)	> 100 µM (inactive)	> 100 µM (inactive)	> 100 µM (inactive)	> 100 µM (inactive)	> 100 µM (inactive)
C=C(C)C(=O)OC1CC2(C)OC(=CC2=O)C(C)CC2OC(=O)C(=C)C12 (stereo not drawn)	3.99 µM (inactive)	3.24 µM (inactive)	18.9 µM (inactive)	2.8 µM (inactive)	1.63 µM (inactive)	3.01 µM (inactive)	5.48 µM (inactive)	2.78 µM (inactive)	3.91 µM (inactive)	2.79 µM (inactive)	–	12.3 µM (inactive)	0.832 µM (active)	4.2 µM (inactive)	5.56 µM (inactive)	14 µM (inactive)	3.52 µM (inactive)	8.95 µM (inactive)	1.23 µM (inactive)	2.7 µM (inactive)
CC1(C)C[C@@H]2C1CCC1(C)CC2(O)CC[C@H]1O (stereo partly drawn)	> 100 µM (inactive)	> 100 µM (inactive)	> 100 µM (inactive)	> 100 µM (inactive)	> 100 µM (inactive)	–	> 100 µM (inactive)	> 100 µM (inactive)	–	> 100 µM (inactive)	> 100 µM (inactive)	> 100 µM (inactive)	> 100 µM (inactive)	> 100 µM (inactive)	> 100 µM (inactive)	> 100 µM (inactive)	> 100 µM (inactive)	> 100 µM (inactive)	> 100 µM (inactive)	> 100 µM (inactive)
NC1=C(N2CCCCC2)C(=O)NC2=N/C(=C\c3ccco3)C(=O)N21	> 100 µM (inactive)	> 100 µM (inactive)	> 100 µM (inactive)	> 100 µM (inactive)	88.3 µM (inactive)	> 100 µM (inactive)	> 100 µM (inactive)	–	> 100 µM (inactive)	> 100 µM (inactive)	> 100 µM (inactive)	> 100 µM (inactive)	> 100 µM (inactive)	> 100 µM (inactive)	> 100 µM (inactive)	–	> 100 µM (inactive)	> 100 µM (inactive)	> 100 µM (inactive)	> 100 µM (inactive)
Cc1cc(S(=O)(=O)[N-]C(=C(C#N)C#N)[n+]2ccc(N(C)C)cc2)c(SCC(=O)O)cc1Cl	> 100 µM (inactive)	> 100 µM (inactive)	> 100 µM (inactive)	> 100 µM (inactive)	–	> 100 µM (inactive)	> 100 µM (inactive)	> 100 µM (inactive)	> 100 µM (inactive)	–	> 100 µM (inactive)	> 100 µM (inactive)	45.8 µM (inactive)	> 100 µM (inactive)	10 µM (inactive)	> 100 µM (inactive)	> 100 µM (inactive)	> 100 µM (inactive)	> 100 µM (inactive)	> 100 µM (inactive)
COc1ccc2c(C)cc(C)nc2n1	> 100 µM (inactive)	> 100 µM (inactive)	> 100 µM (inactive)	> 100 µM (inactive)	> 100 µM (inactive)	> 100 µM (inactive)	> 100 µM (inactive)	> 100 µM (inactive)	–	> 100 µM (inactive)	–	> 100 µM (inactive)	> 100 µM (inactive)	> 100 µM (inactive)	> 100 µM (inactive)	> 100 µM (inactive)	> 100 µM (inactive)	> 100 µM (inactive)	> 100 µM (inactive)	> 100 µM (inactive)
OCC1NCC(O)C(O)C1O (stereo not drawn)	> 100 µM (inactive)	> 100 µM (inactive)	> 100 µM (inactive)	> 100 µM (inactive)	> 100 µM (inactive)	> 100 µM (inactive)	> 100 µM (inactive)	> 100 µM (inactive)	> 100 µM (inactive)	> 100 µM (inactive)	> 100 µM (inactive)	> 100 µM (inactive)	> 100 µM (inactive)	> 100 µM (inactive)	> 100 µM (inactive)	> 100 µM (inactive)	> 100 µM (inactive)	–	> 100 µM (inactive)	> 100 µM (inactive)
